# Reference: patent US20130137760A1, “GAMBOGIC AMINE, A SELECTIVE TRKA AGONIST WITH NEUROPROTECTIVE ACTIVITY” (EMORY UNIVERSITY, priority 2007, published 2013)
# What was measured:
# hippocampal neurons = test: Glutamate-triggered neuronal cell death in hippocampal neurons; assay type: cell-based; details: in vitro
# Method: To examine whether test compounds can promote neuronal survival, hippocampal neurons can be prepared, and the primary neurons pre-treated with various test compounds for a period of time, for example, 30 min, followed by 50 μM glutamate treatment for a period of time, for example, 16 h.
# TrkA is highly expressed in hippocampal neurons (Culmsee et al., 2002; Kume et al., 2000; Zhang et al., 1993). […] To examine whether these compounds can promote neuronal survival, one can prepare hippocampal neurons and pre-treat the primary neurons with various gambogic amine derivatives for 30 min, followed by 50 μM glutamate treatment for 16 h.
# infarct volume = test: Transient middle cerebral artery occlusion (MCAO) stroke model, infarct volume; parameters: species or system rats; details: rat, in vivo
# Method: To further determine the neuroprotective potential in vivo, test compounds can be tested in a transient middle cerebral artery occlusion (MCAO) stroke model in adult male rats. After 2 h MCAO followed by reperfusion, the animals receive vehicle or test compounds (2 mg/kg) 5 min prior to the onset of reperfusion.
# A representative brain slice stained with TTC 24 h after MCAO in vehicle-treated and compound-treated rats can be subjected to area and volume measurements from TTC sections to indicate whether treatments with the compound substantially reduces infarct volumes in this transient ischemic model of stroke. […]
# To further determine the neuroprotective potential in vivo, the gambogic amine can be tested in a transient middle cerebral artery occlusion (MCAO) stroke model in adult male rats. […] LDF (laser-Doppler flowmetry) can be measured over the ipsilateral parietal cortex. The effects of the gambogic amine on relative CBF (cerebral blood flow) can be evaluated. After filament withdrawal (120 min), relative CBF can also be measured in the vehicle-treated group and gambogic amine-treated groups, and compared with preischemic levels.
# Rats can be used in a study of focal ischemia. […] Using a SurgiVet (model V3304; Waukesha, Wis., USA) pulse oximeter, blood SpO2 can be monitored and maintained at levels 90%. […]
smiles,measurement,setting,value
CC(C)=CCC[C@]1(C)C=Cc2c(O)c3c(c(CC=C(C)C)c2O1)O[C@]12C(=C[C@@H]4CC1C(C)(C)O[C@@]2(C/C=C(/C)C(N)=O)C4=O)C3=O [gambogic amide],protection of hippocampal neurons from glutamate-triggered neuronal cell death,hippocampal neurons,potent neurotrophic effects
same,decrease of stroke-induced infarct volume,infarct volume,effectively decrease
